Results from article PMC3950497 (Advances in Pharmacological Sciences, 2014).
Where two headings read alike, the source gives them in different places.

Tests used:
[1] = assay type: in vivo, rabbit; conditions: for Measured mean concentration of stephaglabrin in plasma: i.m. stephaglabrine sulfate 0.1 mg/kg single dose
Description: The selected rabbits were administrated intramuscular with stephaglabrine sulfate at doses 0.1 mg/kg as it was established before. Each animal received a single dose.
Quantitative analysis was acquired in SRM (selected reactions monitoring) mode on Agilent 6490 triple quadrupole mass spectrometer (Agilent, USA) operated in the positive mode and equipped with Jet Stream ESI ion source. Stepharine was detected in the scheduled selected reaction monitoring (SRM) with unit resolution at both first (Q1) and third (Q3) quadrupoles. The retention time point of stepharine was determined as 9.8 with isolation width of 1 minute for the scheduled SRM method application. The optimal conditions of the analysis were achieved as follows: capillary voltage was −4500 V, nozzle voltage was set at −1200 V, flow rate of drying gas (N2) was 16 L/min, flow rate of sheath gas (N2) was 8 L/min, temperature of drying gas was set at 340°C, temperature of sheath gas was set at 290°C, and nebulizer gas was operated at 20 psi. The transitions for protonated stepharine [M+H]^+ 298.4 → 161.2, 192.1, 238.2 were selected for SRM analysis. The isolation window for the fragment ions was set at 0.27 amu, the optimum fragmentor voltage was adjusted to 310 V and collision energy −19 eV. All the samples including calibration points were analyzed in three replications. 30 μL of the samples was injected and loaded on chromatographic column. Calibration was performed on standard samples solution prepared in 20% acetonitrile with concentration of stepharine from 10^−4 μg/mL to 100 μg/mL. Chromatographic separation was performed on Thermo Hypersil-Keystone ODS column (Thermo Scientific, USA) 100 × 2.1 mm, 5 μm particle size, at flow rate of 200 μL/min and with the following elution conditions: loading onto the column at maintained 20% of mobile phase B for 3 minutes, increasing the gradient to 50% of B at 5 minutes following increasing the gradient to 100% of mobile phase B at 15 minutes. The column was washed and maintained at 100% mobile phase B from 15 to 22 minutes and the composition was decreased to 20% of solvent B at 23 minute. The column was reequilibrated at starting conditions of solvent A-solvent B system ([…], v/v) for 10 minutes at flow 200 μL/min.
0.5 mL of blood samples from each animal was collected from ear vein in the tubes with EDTA before administration and at 15, 30, 60, 90, 120, 180, 480, 720, and 1440 minutes after drug ingestion. Blood samples were immediately put on ice and centrifuged at 5000 g for 10 minutes at 4°C within one hour after blood collection. The obtained plasma was placed in sterile tube and kept at −20°C until analysis.
Plasma proteins were precipitated with acetonitrile. For this purpose, two volumes of acetonitrile were added to 100 μL of rabbit plasma into 1.5 mL plastic tube and 30% ammonia hydroxide was added to adjust the pH to 10. After vortex-mixing for 15 minutes at ambient temperature one volume of chloroform was added three times consequently for 2 hours and incubated at 30°C under regular stirring at 900 rpm at each occasion. The first fraction of upper organic layer was collected after 2 hours of incubation, the second and the third fractions of chloroform extract were collected after additional 30 and 60 minutes of incubation, respectively. The collected fractions were combined and transferred to a new tube and dried under vacuum at 30°C. The resulting pellet was resuspended in 100 μL of 20% water-acetonitrile solution and centrifuged at 14000 rpm for 15 minutes immediately before use. The obtained solution was used for LC-MS analysis. […]

[2] = assay type: physicochemical
Description: Freeze-thaw stability of stephaglabrine sulfate solution was evaluated because samples were stored at −20°C. The stability of stephaglabrine pool solutions (in water-acetonitrile 20%) at concentrations of 10 μg/mL, 50 μg/mL, and 100 μg/mL was evaluated after three cycles of overnight freezing following 3 hours of bench thaw at ambient temperature. The loss of stepharine was evaluated by comparison with freshly prepared standard solutions of the same concentrations. Loss of 10% and less was accepted.

COc1cc2c3c(c1OC)C1(C=CC(=O)C=C1)C[C@@H]3NCC2 [stepharine]
time of maximum concentration (C max) ([1]; all rabbits, i.m. 0.1 mg/kg stephaglabrine sulfate): 90 min
Measured mean concentration of stephaglabrin in plasma ([1]; rabbit ST01, 15 min after administration): 8.1 ± 0.6 ng/mL
Measured mean concentration of stephaglabrin in plasma ([1]; rabbit ST01, 30 min after administration): 9.4 ± 0.5 ng/mL
Measured mean concentration of stephaglabrin in plasma ([1]; rabbit ST01, 60 min after administration): 10.0 ± 0.3 ng/mL
Measured mean concentration of stephaglabrin in plasma ([1]; rabbit ST01, 90 min after administration): 13.9 ± 0.9 ng/mL
Measured mean concentration of stephaglabrin in plasma ([1]; rabbit ST01, 120 min after administration): 5.8 ± 0.1 ng/mL
Measured mean concentration of stephaglabrin in plasma ([1]; rabbit ST01, 180 min after administration): 3.8 ± 0.1 ng/mL
Measured mean concentration of stephaglabrin in plasma ([1]; rabbit ST01, 480 min after administration): 1.8 ± 0.02 ng/mL
Measured mean concentration of stephaglabrin in plasma ([1]; rabbit ST01, 720 min after administration): 1.5 ± 0.02 ng/mL
Measured mean concentration of stephaglabrin in plasma ([1]; rabbit ST01, 1440 min after administration): 0 ng/mL
Measured mean concentration of stephaglabrin in plasma ([1]; rabbit ST02, 15 min after administration): 7.9 ± 0.2 ng/mL
Measured mean concentration of stephaglabrin in plasma ([1]; rabbit ST02, 30 min after administration): 16.5 ± 0.8 ng/mL
Measured mean concentration of stephaglabrin in plasma ([1]; rabbit ST02, 60 min after administration): 29.3 ± 2.2 ng/mL
Measured mean concentration of stephaglabrin in plasma ([1]; rabbit ST02, 90 min after administration): 33.9 ± 2.8 ng/mL
Measured mean concentration of stephaglabrin in plasma ([1]; rabbit ST02, 120 min after administration): 10.4 ± 0.5 ng/mL
Measured mean concentration of stephaglabrin in plasma ([1]; rabbit ST02, 180 min after administration): 7.8 ± 0.3 ng/mL
Measured mean concentration of stephaglabrin in plasma ([1]; rabbit ST02, 480 min after administration): 1.2 ± 0.02 ng/mL
Measured mean concentration of stephaglabrin in plasma ([1]; rabbit ST02, 720 min after administration): 1.3 ± 0.01 ng/mL
Measured mean concentration of stephaglabrin in plasma ([1]; rabbit ST02, 1440 min after administration): 0 ng/mL
Measured mean concentration of stephaglabrin in plasma ([1]; rabbit ST03, 15 min after administration): 6.8 ± 0.4 ng/mL
Measured mean concentration of stephaglabrin in plasma ([1]; rabbit ST03, 30 min after administration): 14.8 ± 0.2 ng/mL
Measured mean concentration of stephaglabrin in plasma ([1]; rabbit ST03, 60 min after administration): 19.5 ± 0.6 ng/mL
Measured mean concentration of stephaglabrin in plasma ([1]; rabbit ST03, 90 min after administration): 20.4 ± 1.7 ng/mL
Measured mean concentration of stephaglabrin in plasma ([1]; rabbit ST03, 120 min after administration): 6.5 ± 0.1 ng/mL
Measured mean concentration of stephaglabrin in plasma ([1]; rabbit ST04, 15 min after administration): 5.7 ± 0.2 ng/mL
Measured mean concentration of stephaglabrin in plasma ([1]; rabbit ST04, 30 min after administration): 7.3 ± 0.3 ng/mL
Measured mean concentration of stephaglabrin in plasma ([1]; rabbit ST04, 60 min after administration): 9.5 ± 0.5 ng/mL
Measured mean concentration of stephaglabrin in plasma ([1]; rabbit ST04, 90 min after administration): 14.2 ± 0.2 ng/mL
Measured mean concentration of stephaglabrin in plasma ([1]; rabbit ST04, 120 min after administration): 9.7 ± 0.2 ng/mL
Measured mean concentration of stephaglabrin in plasma ([1]; rabbit ST04, 180 min after administration): 2.8 ± 0.2 ng/mL
Measured mean concentration of stephaglabrin in plasma ([1]; rabbit ST04, 480 min after administration): 0.7 ± 0.01 ng/mL
Measured mean concentration of stephaglabrin in plasma ([1]; rabbit ST04, 720 min after administration): 0.6 ± 0.01 ng/mL
Measured mean concentration of stephaglabrin in plasma ([1]; rabbit ST04, 1440 min after administration): 0 ng/mL
Measured mean concentration of stephaglabrin in plasma ([1]; rabbit ST05, 15 min after administration): 6.3 ± 0.2 ng/mL
Measured mean concentration of stephaglabrin in plasma ([1]; rabbit ST05, 30 min after administration): 12.7 ± 0.3 ng/mL
Measured mean concentration of stephaglabrin in plasma ([1]; rabbit ST05, 60 min after administration): 18.5 ± 0.2 ng/mL
Measured mean concentration of stephaglabrin in plasma ([1]; rabbit ST05, 90 min after administration): 21.2 ± 0.2 ng/mL
Measured mean concentration of stephaglabrin in plasma ([1]; rabbit ST05, 120 min after administration): 5.1 ± 0.3 ng/mL
Measured mean concentration of stephaglabrin in plasma ([1]; rabbit ST05, 180 min after administration): 2.9 ± 0.07 ng/mL
Measured mean concentration of stephaglabrin in plasma ([1]; rabbit ST05, 480 min after administration): 1.4 ± 0.08 ng/mL
Measured mean concentration of stephaglabrin in plasma ([1]; rabbit ST05, 720 min after administration): 0.9 ± 0.04 ng/mL
Measured mean concentration of stephaglabrin in plasma ([1]; rabbit ST05, 1440 min after administration): 0 ng/mL
Measured mean concentration of stephaglabrin in plasma ([1]; rabbit ST06, 15 min after administration): 7.0 ± 0.3 ng/mL
Measured mean concentration of stephaglabrin in plasma ([1]; rabbit ST06, 30 min after administration): 13.9 ± 0.2 ng/mL
Measured mean concentration of stephaglabrin in plasma ([1]; rabbit ST06, 60 min after administration): 20.4 ± 0.2 ng/mL
Measured mean concentration of stephaglabrin in plasma ([1]; rabbit ST06, 90 min after administration): 25.8 ± 0.1 ng/mL
Measured mean concentration of stephaglabrin in plasma ([1]; rabbit ST06, 120 min after administration): 7.6 ± 0.09 ng/mL
Measured mean concentration of stephaglabrin in plasma ([1]; rabbit ST06, 180 min after administration): 3.3 ± 0.08 ng/mL
Measured mean concentration of stephaglabrin in plasma ([1]; rabbit ST06, 480 min after administration): 1.2 ± 0.08 ng/mL
Measured mean concentration of stephaglabrin in plasma ([1]; rabbit ST06, 720 min after administration): 0.7 ± 0.02 ng/mL
Measured mean concentration of stephaglabrin in plasma ([1]; rabbit ST06, 1440 min after administration): 0 ng/mL
presence in plasma samples after 24 hours ([1]; rabbits, 24 hours after intramuscular administration): not found
apparent volume of distribution ([1]; rabbits, estimated as ratio of clearance to elimination rate constant, data not shown): extensively distributed throughout the body
loss during three freeze-thaw cycles ([2]; solutions in water-acetonitrile 20% at 10, 50 and 100 μg/mL, overnight freezing, 3 hours bench thaw at ambient temperature): less than 6%
mean sample stability ([2]; three freeze-thaw cycles, solutions in water-acetonitrile 20%): 94.6%
